Source: patent US12291501B2 (University of Florida Research Foundation, Inc., priority 2021, dated 2025)
Values joined by “and” are separate entries in the source; they are usually repeats but may differ in a detail not shown here. Equal entries are not always repeated. “Also recorded” adds a separate entry of the source.

Tests used:
Type in all cases: cell-based
α1β1εδ nAChR = target: T1, α1β1εδ nAChR (Mus musculus, UniProt P02716+P04756+P09690+P20782); assay: Inhibition of control ACh responses by co-application, muscle α1β1εδ nAChR in oocytes; settings: 3 μM compound co-applied with ACh; fraction of control ACh response
T1 construct: expressed in transfected cells; host or cells: Xenopus laevis oocytes
Experimental: (§1) Initial profiling against heteromeric receptors: The test compounds for their ability to activate or inhibit other nAChR subtypes were evaluated. Agonist activity was evaluated by applying the compounds at 100 or 30 μM to human α4β2 and α3β4 as well as to mouse muscle α1β1εδ nAChR expressed in Xenopus oocytes. […] The inhibitory activity was generally low (Table 3).
(§2) Molecular Biology: Plasmid DNAs encoding the human α7 and heteromeric nAChR were obtained from Jon Lindstrom (University of Pennsylvania, Philadelphia, PA). Mouse muscle subunit clones were obtained from Jim Boulter (Salk Institute, La Jolla CA) and Paul Gardner (Dartmouth, Hanover NH). The human resistance-to-cholinesterase 3 ([…]) clone was obtained from Millet Treinin (Hebrew University, Jerusalem, Israel) and RNA co-injected with α7 to improve the level and speed of receptor expression without affecting their pharmacological properties. Plasmid DNA encoding the human α10 nAChR was obtained from J. Michael McIntosh. Plasmid DNA encoding the human α9 nAChR and the human receptor-associated protein of the synapse (RAPSYN) with codon optimization for expression in Xenopus laevis were obtained from Katrin Richter. RAPSYN RNA was co-injected with the α9 and α10 to improve expression (Richter et al., (2022) Front. Cell Neurosci. 16: 779081). After linearization and purification of the plasmid DNAs, RNAs were prepared using the mMessage mMachine in vitro RNA transcription kit (Ambion, Austin, TX). Frogs were maintained in the Animal Care Service facility of the University of Florida, and all procedures were approved by the University of Florida Institutional Animal Care and Use Committee (approval number 202002669). In brief, the animals were first anesthetized for 15-20 min in 1.5 l frog tank water containing 1 g of MS-222 buffered with sodium bicarbonate. Oocytes were obtained surgically from mature female Xenopus laevis (Nasco, Ft. Atkinson WI, USA) and treated with 1.4 mg/ml type 1 collagenase (Worthington Biochemicals, Freehold NJ, USA) for 2-4 h at rt in Ca2+-free Barth's solution (88 mM NaCl, 1 mM KCl, 2.38 mM NaHCO3, 0.82 mM MgSO4, 15 mM HEPES, and 12 mg/l tetracycline, pH 7.6) to remove the ovarian tissue and the follicular layers. Stage V oocytes were injected with 4-6 ng CHRNA7 RNA and 2-3 ng RIC3 RNA (2:1 ratio) in 50 nl water, or with 12 ng CHRNA9 RNA and 3 ng RAPSN RNA, or along with 12 ng CHRNA10 RNA in 50 nl water. Oocytes were maintained in Barth's solution containing 0.32 mM Ca(NO3)2 and 0.41 mM CaCl2, and recordings were conducted 2-20 days after injection.
(§3) Electrophysiology: Two-electrode voltage-clamp experiments were conducted using OpusXpress 6000A (Molecular Devices, Union City CA, USA). Both the voltage and current electrodes were filled with 3 M KCl. Oocytes were voltage-clamped at −60 mV at rt. The oocytes were perfused with Ringer's solution (115 mM NaCl, 2.5 mM KCl, 1.8 mM CaCl2, 10 mM HEPES, 1 μM atropine, pH 7.2) at 2 ml/min. […] Drug applications were 12 s in duration followed by 181 s washout periods.
(§4) The responses were calculated as both peak-current amplitudes and net charge. Data were collected at 50 Hz, filtered at 20 Hz, and analyzed by Clampfit (Molecular Devices) and Excel (Microsoft, Redmond, WA, United States). Data are expressed as means±SEM from at least five oocytes for each experiment and plotted with Kaleidagraph 4.5.2 (Abelbeck Software, Reading, PA, United States). Each episode of data acquisition was a total of 210 s and included an initial 30 s period used to define the baseline for the drug-evoked responses. After 30 s, drugs were applied, and the following 120 s were defined as the drug response period for analysis. […] The values for the curve fits were generated using the Levenberg-Marquardt algorithm to obtain the best Chi-Square fit to the Hill equation using the Kaleidagraph 4.5.2 plotting program. The errors in the tables are the calculated standard errors of the fit parameters based on the goodness of fit.

α9 nAChR = target: T2, α9 nAChR (Homo sapiens, UniProt Q9UGM1); assay: Two-electrode voltage-clamp, agonist concentration-response, α9 nAChR in Xenopus oocytes; settings: for α9 Imax: relative to ACh (Imax = 1)
T2 construct: expressed in transfected cells; host or cells: Xenopus laevis oocytes, injected with in vitro transcribed RNA
Text: (§5) Electrophysiology: Xenopus oocytes were microinjected with RNAs to produce functional nAChR which were characterized by two-electrode voltage-clamp measurements. FIGS. 5A-7D present concentration-response curves for the new compounds evaluated with α7, α9, and α9α10 receptors. Table 1 presents the values for Imax and EC50 with these receptors and Table 2 summarizes inhibition data for the compounds with heteromeric nAChR.
as §2, §3
as §4, with “The errors in the tables are the calculated standard errors of the fit parameters based on the goodness of fit.” left out

α7 nAChR [1] = target: T3, α7 nAChR (Homo sapiens, UniProt P36544); assay: Two-electrode voltage-clamp, agonist concentration-response, α7 nAChR in Xenopus oocytes; settings: for EC50 / α7 Imax: net charge, ± standard error of fit; for α7 Imax: relative to ACh (Imax = 1)
T3 construct: expressed in transfected cells; host or cells: Xenopus laevis oocytes, injected with in vitro transcribed RNA
Text: as §5
(§6) Molecular Biology: Plasmid DNAs encoding the human α7 and heteromeric nAChR were obtained from Jon Lindstrom (University of Pennsylvania, Philadelphia, PA). Mouse muscle subunit clones were obtained from Jim Boulter (Salk Institute, La Jolla CA) and Paul Gardner (Dartmouth, Hanover NH). […] Plasmid DNA encoding the human α10 nAChR was obtained from J. Michael McIntosh. Plasmid DNA encoding the human α9 nAChR and the human receptor-associated protein of the synapse (RAPSYN) with codon optimization for expression in Xenopus laevis were obtained from Katrin Richter. […] After linearization and purification of the plasmid DNAs, RNAs were prepared using the mMessage mMachine in vitro RNA transcription kit (Ambion, Austin, TX). […] Oocytes were maintained in Barth's solution containing 0.32 mM Ca(NO3)2 and 0.41 mM CaCl2, and recordings were conducted 2-20 days after injection.
(§7) Electrophysiology: Two-electrode voltage-clamp experiments were conducted using OpusXpress 6000A (Molecular Devices, Union City CA, USA). Both the voltage and current electrodes were filled with 3 M KCl. Oocytes were voltage-clamped at −60 mV at rt.
as §4

α3β4 nAChR = target: T4, α3β4 nAChR (Homo sapiens, UniProt P30926+P32297); assay: Inhibition of control ACh responses by co-application, α3β4 nAChR in oocytes; settings: 3 μM compound co-applied with ACh; fraction of control ACh response
T4 construct: expressed in transfected cells; host or cells: Xenopus laevis oocytes
Experimental: as §1, §2, §3, §4

α9α10 nAChR = target: T5, α9α10 nAChR (Homo sapiens, UniProt Q9GZZ6+Q9UGM1); assay: Two-electrode voltage-clamp, agonist concentration-response, α9α10 nAChR in Xenopus oocytes; settings: for α9α10 Imax: relative to ACh (Imax = 1)
T5 construct: expressed in transfected cells; host or cells: Xenopus laevis oocytes, injected with in vitro transcribed RNA
Text: as §5, §2, §3
as §4, with “The errors in the tables are the calculated standard errors of the fit parameters based on the goodness of fit.” left out

α7 nAChR [2] = target: T3, α7 nAChR; assay: α7 responses to drugs co-applied with the PAM PNU-120596 (silent agonism); settings: for Response co-applied with PNU-120596, normalized to ACh co-applied with PNU-120596: drug 30 μM + 10 μM PNU-120596, normalized to 30 μM ACh + 10 μM PNU-120596
Text: as §6, §7, §4

α4β2 nAChR = target: T6, α4β2 nAChR (Homo sapiens, UniProt P17787+P43681); assay: Inhibition of control ACh responses by co-application, α4β2 nAChR in oocytes; settings: 3 μM compound co-applied with ACh; fraction of control ACh response
T6 construct: expressed in transfected cells; host or cells: Xenopus laevis oocytes
Experimental: as §1, §2, §3, §4

[3] = peak currents, ± standard error of fit
[4] = 3e vs larger ammonium analogs, 3h relative to 3g

T2 sequence (Q9UGM1 26-479 limits assumed): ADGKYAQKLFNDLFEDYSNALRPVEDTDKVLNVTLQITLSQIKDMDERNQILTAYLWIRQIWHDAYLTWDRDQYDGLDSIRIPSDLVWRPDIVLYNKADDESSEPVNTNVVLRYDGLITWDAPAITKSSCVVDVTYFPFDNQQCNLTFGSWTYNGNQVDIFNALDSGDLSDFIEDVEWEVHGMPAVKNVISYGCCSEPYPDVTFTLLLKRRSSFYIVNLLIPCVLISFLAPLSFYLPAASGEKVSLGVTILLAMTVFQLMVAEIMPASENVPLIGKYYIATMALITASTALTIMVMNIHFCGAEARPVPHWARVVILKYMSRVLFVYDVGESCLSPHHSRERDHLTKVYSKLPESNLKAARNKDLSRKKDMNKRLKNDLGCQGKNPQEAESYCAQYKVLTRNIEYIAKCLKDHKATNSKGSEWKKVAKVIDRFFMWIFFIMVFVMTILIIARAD
T5 sequence (Q9UGM1 26-479 limits assumed): as above
T5 sequence (Q9GZZ6 25-450): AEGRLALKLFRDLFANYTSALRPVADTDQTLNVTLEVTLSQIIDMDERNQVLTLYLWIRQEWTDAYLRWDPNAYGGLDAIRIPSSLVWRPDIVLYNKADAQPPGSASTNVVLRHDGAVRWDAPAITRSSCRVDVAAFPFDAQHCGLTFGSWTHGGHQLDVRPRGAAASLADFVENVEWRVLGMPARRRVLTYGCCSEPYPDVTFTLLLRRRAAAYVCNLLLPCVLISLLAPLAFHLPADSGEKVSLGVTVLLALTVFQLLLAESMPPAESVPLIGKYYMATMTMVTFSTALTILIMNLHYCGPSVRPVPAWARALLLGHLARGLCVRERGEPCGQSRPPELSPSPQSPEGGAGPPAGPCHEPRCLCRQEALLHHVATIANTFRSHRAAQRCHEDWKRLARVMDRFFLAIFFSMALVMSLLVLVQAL
T4 sequence (P32297 32-505): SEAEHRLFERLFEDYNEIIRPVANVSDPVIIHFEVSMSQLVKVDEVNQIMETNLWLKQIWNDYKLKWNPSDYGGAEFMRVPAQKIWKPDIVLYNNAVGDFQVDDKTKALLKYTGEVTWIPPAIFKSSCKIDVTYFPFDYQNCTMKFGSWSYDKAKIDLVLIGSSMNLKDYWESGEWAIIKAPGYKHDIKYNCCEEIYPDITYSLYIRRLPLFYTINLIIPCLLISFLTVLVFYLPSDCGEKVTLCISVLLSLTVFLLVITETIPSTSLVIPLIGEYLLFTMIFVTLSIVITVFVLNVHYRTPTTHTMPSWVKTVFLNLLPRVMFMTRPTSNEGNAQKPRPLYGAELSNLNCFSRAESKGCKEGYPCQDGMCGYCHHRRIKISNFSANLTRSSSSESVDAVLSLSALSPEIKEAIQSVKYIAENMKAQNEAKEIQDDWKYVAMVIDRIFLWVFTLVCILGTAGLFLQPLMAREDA
T4 sequence (P30926 22-498): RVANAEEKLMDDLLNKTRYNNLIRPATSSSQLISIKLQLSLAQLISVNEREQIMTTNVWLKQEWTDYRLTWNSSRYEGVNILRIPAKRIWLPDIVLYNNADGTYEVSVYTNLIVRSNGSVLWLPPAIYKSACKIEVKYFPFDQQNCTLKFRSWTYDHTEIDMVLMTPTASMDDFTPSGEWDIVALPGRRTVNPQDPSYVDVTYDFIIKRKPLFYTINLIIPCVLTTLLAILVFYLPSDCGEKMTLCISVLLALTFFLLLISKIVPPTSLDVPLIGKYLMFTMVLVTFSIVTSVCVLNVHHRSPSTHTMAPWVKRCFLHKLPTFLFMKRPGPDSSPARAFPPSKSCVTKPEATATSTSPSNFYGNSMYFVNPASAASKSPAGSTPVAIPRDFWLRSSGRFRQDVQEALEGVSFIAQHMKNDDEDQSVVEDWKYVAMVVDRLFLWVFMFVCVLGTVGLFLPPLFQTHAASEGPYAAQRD
T6 sequence (P43681 29-627 limits assumed): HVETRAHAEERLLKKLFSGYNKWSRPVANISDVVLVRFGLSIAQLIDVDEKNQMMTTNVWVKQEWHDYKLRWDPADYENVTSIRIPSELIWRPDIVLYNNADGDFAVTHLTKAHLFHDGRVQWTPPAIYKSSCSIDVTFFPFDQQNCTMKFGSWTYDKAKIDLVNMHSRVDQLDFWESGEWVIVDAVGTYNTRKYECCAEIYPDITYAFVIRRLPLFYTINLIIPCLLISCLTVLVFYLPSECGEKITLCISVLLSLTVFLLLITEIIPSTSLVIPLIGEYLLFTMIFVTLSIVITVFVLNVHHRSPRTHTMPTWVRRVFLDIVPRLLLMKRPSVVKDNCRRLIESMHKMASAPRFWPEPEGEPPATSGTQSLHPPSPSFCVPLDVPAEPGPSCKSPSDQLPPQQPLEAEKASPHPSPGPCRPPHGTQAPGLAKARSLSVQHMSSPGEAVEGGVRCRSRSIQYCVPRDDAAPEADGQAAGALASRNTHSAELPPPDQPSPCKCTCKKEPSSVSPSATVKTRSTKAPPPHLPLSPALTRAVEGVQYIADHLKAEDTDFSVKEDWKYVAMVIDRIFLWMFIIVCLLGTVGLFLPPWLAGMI
T6 sequence (P17787 26-502): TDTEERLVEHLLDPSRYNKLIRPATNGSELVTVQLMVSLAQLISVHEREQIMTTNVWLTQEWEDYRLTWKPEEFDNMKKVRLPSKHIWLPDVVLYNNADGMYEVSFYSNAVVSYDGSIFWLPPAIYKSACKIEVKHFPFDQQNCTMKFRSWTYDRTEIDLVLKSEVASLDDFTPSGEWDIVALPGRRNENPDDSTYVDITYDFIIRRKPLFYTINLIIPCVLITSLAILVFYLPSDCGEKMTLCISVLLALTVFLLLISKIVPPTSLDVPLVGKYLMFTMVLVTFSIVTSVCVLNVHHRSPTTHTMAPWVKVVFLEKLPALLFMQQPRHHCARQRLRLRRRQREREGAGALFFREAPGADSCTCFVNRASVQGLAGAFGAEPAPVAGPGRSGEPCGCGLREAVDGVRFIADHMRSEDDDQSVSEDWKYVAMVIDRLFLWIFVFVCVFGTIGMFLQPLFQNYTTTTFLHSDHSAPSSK
T3 sequence (P36544 23-502): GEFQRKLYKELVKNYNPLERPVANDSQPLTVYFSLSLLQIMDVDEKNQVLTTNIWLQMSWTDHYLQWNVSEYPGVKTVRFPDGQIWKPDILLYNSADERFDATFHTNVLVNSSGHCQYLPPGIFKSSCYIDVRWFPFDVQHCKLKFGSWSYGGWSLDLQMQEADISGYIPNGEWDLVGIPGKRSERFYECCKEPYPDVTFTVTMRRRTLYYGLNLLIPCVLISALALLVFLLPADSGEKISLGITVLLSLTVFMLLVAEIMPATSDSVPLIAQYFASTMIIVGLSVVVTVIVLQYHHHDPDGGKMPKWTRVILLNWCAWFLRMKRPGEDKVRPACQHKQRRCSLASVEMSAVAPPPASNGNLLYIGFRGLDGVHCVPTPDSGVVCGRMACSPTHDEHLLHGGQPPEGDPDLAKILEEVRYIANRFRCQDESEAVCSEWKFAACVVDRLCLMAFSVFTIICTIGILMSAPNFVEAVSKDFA

| Compound | Effect of co-application on the control ACh responses, α1β1εδ (α1β1εδ nAChR) | Agonist character / efficacy at α9 (α9 nAChR) | EC50 (α9 nAChR; [3]) [µM] | α9 Imax (α9 nAChR; [3]) | Agonist character / efficacy at α7 (α7 nAChR [1]) | EC50 (α7 nAChR [1]) [µM] | α7 Imax (α7 nAChR [1]) | Effect of co-application on the control ACh responses, α3β4 (α3β4 nAChR) | EC50 (α9α10 nAChR; [3]) [µM] | α9α10 Imax (α9α10 nAChR; [3]) | Response co-applied with PNU-120596, normalized to ACh co-applied with PNU-120596 (α7 nAChR [2]) | Effect of co-application on the control ACh responses, α4β2 (α4β2 nAChR) | Agonist character / efficacy at α9α10 (α9α10 nAChR) | further results |
| --- | --- | --- | --- | --- | --- | --- | --- | --- | --- | --- | --- | --- | --- | --- |
| CC[N+]1(CC)CCN(c2ccc(C(=O)N3CCCC3)cc2)CC1.[I-] [Compound 3a, 1,1-diethyl-4-(4-(pyrrolidine-1-carbonyl)phenyl)piperazin-1-ium iodide] | 0.541 ± 0.048 | moderate efficacy | 45 ± 22 | 0.69 ± 0.09 | lost agonism | 500 ± 500 | 0.06 ± 0.11 and 0.06 | 0.849 ± 0.034 | 15 ± 3.1 | 0.56 ± 0.04 | 0.01 | 0.919 ± 0.022 | – | – |
| CC[N+]1(CC)CCN(c2ccc(-c3ncco3)cc2)CC1.[I-] [Compound 3g, 1,1-diethyl-4-(4-(oxazol-2-yl)phenyl)piperazin-1-ium iodide] | 0.353 ± 0.071 | full agonism; also recorded: full agonist | 0.38 ± 0.17 | 1.29±0.13 | strongly diminished activity; also recorded: very weak partial agonists | 1.7 ± 0.4 | 0.12 ± 0.01 and 0.12 | 0.507 ± 0.032 | 0.7 ± 0.03 | 0.83±0.01 | 0.05 | 0.823 ± 0.043 | strong partial agonist | α9 EC50 (α9 nAChR; [3]): submicromolar potency; α9α10 EC50 (α9α10 nAChR; [3]): submicromolar potency |
| CC[N+]1(CC)CCN(c2ccc(-n3cccn3)cc2)CC1.[I-] [Compound 3h, 4-(4-(1H-pyrazol-1-yl)phenyl)-1,1-diethylpiperazin-1-ium iodide] | 0.590 ± 0.062 | full agonist | 1.49 ± 0.24 | 1.01 ± 0.04 | very weak partial agonists | 18 ± 0.6 | 0.088 ± 0.001 and 0.088 | 0.736 ± 0.034 | 2 ± 0.8 | 0.59 ± 0.05 | 0.17 | 0.913 ± 0.026 | partial agonist | Fold loss of potency at α9 relative to comparator compound (α9 nAChR; [4]): 3 fold; Fold loss of potency at α7 relative to comparator compound (α7 nAChR [1]; 3h compared with 3g): 10 fold; Fold loss of potency at α9α10 relative to comparator compound (α9α10 nAChR; [4]): 3 fold; Response co-applied with PNU-120596 relative to the ACh controls (α7 nAChR [2]; 30 μM compound + 10 μM PNU-120596, relative to ACh alone controls): approximately 4 times |
| CCCNC(=O)c1ccc(N2CC[N+](CC)(CC)CC2)cc1.[I-] [Compound 3b, 1,1-diethyl-4-(4-(propylcarbamoyl)phenyl)piperazin-1-ium iodide] | 0.709 ± 0.086 | – | 9 ± 6 | 1.13 ± 0.15 | – | 280 ± 240 | 0.38 ± 0.09 and 0.38 | 0.650 ± 0.039 | 11 ± 6 | 0.79 ± 0.13 | 0.19 | 0.946 ± 0.032 | – | – |
| CC[N+]1(CC)CCN(c2ccc(C(=O)Nc3ccccn3)cc2)CC1.[I-] [Compound 3c, 1,1-diethyl-4-(4-(pyridin-2-ylcarbamoyl)phenyl)piperazin-1-ium iodide] | 0.506 ± 0.082 | – | 18 ± 36 | 1.18 ± 0.39 | partial agonists | 26 ± 20 | 0.46 ± 0.08 and 0.46 | 0.789 ± 0.057 | 1.18 ± 0.26 | 0.94 ± 0.04 | 0.12 | 0.697 ± 0.027 | efficacious agonist | Fold better potency for α9α10 relative to α9 homomers (α9α10 nAChR; ratio of EC50 values): 10 fold |
| CC[N+]1(CC)CCN(c2ccc(C(N)=O)cc2)CC1 [Compound 1, 4-(4-carbamoylphenyI)-1,1-diethylpiperazin-1-ium iodide, reference compound] | – | full α9 agonist | 1.15 ± 0.24 | 0.80 ± 0.03 | – | 76 ± 2 | 0.34 ± 0.01 and 0.34 | – | 13 ± 11 | 1.19 ± 0.25 | 0.18 | – | – | Fold greater potency for α9 than for α7 (α9 nAChR; ratio of EC50 values): 66 fold |
